We go through one compound from patent US20110287080A1, “COATING II” (SMITH & NEPHEW PLC, priority 2008, published 2011).

The nature of this data set: Elution of rapamycin from polymer-coated stents into PBS at 37° C., monitored by UV/vis. Particulars: stent coating with 25% rapamycin, cumulative absorbance at 279 nm. In kind it is physicochemical. As for the experimental part:
Solutions were prepared by dissolving the polymers listed in Table 1 in CHCl3 with 25% (by weight of the solid polymer) rapamycin. After cooling for 5 minutes, the stents were attached to a mandrel and coated on the Sonotek MediCoat Benchtop Coater with a 0.5% w/w solution in CHCl3 of polymer/drug (75/25). The parameters used were: 0.09 ml/min flow rate, 1.0 W ultrasonic power, 16 passes, 40 rpm rotation, 0.13 cm/s horizontal travel and 25 mm from stent to spray head. After coating, the stents were dried under vacuum for 16 hours at 40° C. The stents were released into phosphate buffered saline solution (PBS) at 37° C. and the elution monitored by UV/vis spectroscopy. Fresh buffer solution was added after each reading and the cumulative absorbance at 279 nm was recorded.

Turning to `CCCCCCCCCCCC(=O)O` [lauric acid], the “rate of release (elution) of rapamycin” value is “minimal affect on the rate of release of rapamycin”.
